# Measurements reported in patent US6706663B2, “Herbicidal 3-heterocyclic substituted benzisothiazole and benzisoxazole compounds” (Wyeth, priority 2000, dated 2004).
# Columns and labels:
# SETVI (Setaria viridis) = test: Postemergence herbicidal evaluation; format: in vivo, (L.) Beau
# Procedure, shortened: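 Visual injury score (0-9: stand, vigor, malformation, size, chlorosis, overall appearance vs untreated control) taken four to five weeks post-spray. Two-week-old seedlings received about 0.0040 to 1.000 kg/ha active compound in acetone/water with 0.5% TWEEN 20.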
# [1] = system: ECHORC (Echinochloa oryzoides); test: Flooded paddy, preemergence weed control; format: in vivo, Echinochloa oryzoides (Ard.) Fritsch.; conditions: rated 3-4 weeks after treatment, 0-9 rating scale
# Procedure, shortened: (§1)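 Under paddy conditions, seeds or vegetative propagules go into the top 0.5 cm of silt loam; the soil is then flooded to 1.5–3 cm and kept so. Treated pots stay in a greenhouse; response is rated 0-9 visually versus control.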
# ORYSAT (Rice, Tebonnet) [2] = test: Preemergence herbicidal evaluation; format: in vivo, Oryza sativa, (L.) Tebonnet; conditions: preemergence, rated 4-5 weeks after treatment
# [3] = system: SAGPY (Sagittaria pygmaea); test: Flooded paddy, preemergence weed control; format: in vivo, L.; conditions: rated 3-4 weeks after treatment, 0-9 rating scale
# Procedure, shortened: as §1
# GALAP (Galium aparine) [4] = test: Preemergence herbicidal evaluation; format: in vivo; conditions: preemergence, rated 4-5 weeks after treatment
# Procedure, shortened: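 Preemergence soil spray, aq. acetone; greenhouse; visual 0–9 score vs control at 4–5 wk.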
# [5] = system: TRZAWR (Wheat, Winter, cv Riband); test: Postemergence herbicidal evaluation; format: in vivo, Triticum aestivum
# Procedure, shortened: (§2)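 Visual 0–9 injury scores versus control plants, covering stand, vigour, malformation, size, chlorosis and general appearance, taken four to five weeks post-spray and averaged over replicate tests. Plants were sprayed at roughly two weeks old and held on greenhouse benches.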
# ORYSAT (Rice, Tebonnet) [6] = test: Flooded paddy, post-transplant and postemergence rice tolerance; format: in vivo, Oryza sativa, (L.) Tebonnet; conditions: post-transplant rice, rated 3-4 weeks after treatment
# Description: (§3) Results of herbicide evaluation are expressed on a rating scale (0-9). The scale is based upon a visual observation of plant stand, vigor, malformation, size, chlorosis and overall plant appearance as compared with a control.
# (§4) Plastic containers containing weeds which are 3 to 5 cm tall and rice seedlings at the 1.5 to 2.5 leaf stage are flooded with water. The water is maintained at 1.5 to 3 cm above the soil surface for the duration of the experiment. Test compounds are applied as aqueous/acetone mixtures 50/50 v/v directly into the flood water to provide the equivalent of about 0.0320 to 0.2500 kg/ha of active ingredient. The treated containers are placed on greenhouse benches and cared for in accordance with conventional greenhouse procedures. Three to four weeks after treatment, the test is terminated and each container is examined and herbicidal effect rated according to the rating system provided in Example 87. The compounds evaluated are identified in Example 87 and plant species used are identified in Example 89.
# [7] = system: ECHCG (Echinochloa crus-galli); test: Postemergence herbicidal evaluation; format: in vivo, (L.) Beau
# Procedure, shortened: as §2
# [8] = system: CYPSE (Cyperus serotinus); test: Flooded paddy, preemergence weed control; format: in vivo, Rottb.; conditions: rated 3-4 weeks after treatment, 0-9 rating scale
# Procedure, shortened: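 Seeds or propagules were planted 0.5 cm deep in silt loam and flooded to 1.5–3 cm. Compounds in 50/50 v/v aqueous/acetone were pipetted into the flood water at about 0.0080 to 0.1250 kg/ha. After 3–4 weeks in the greenhouse, effect was rated visually on a 0–9 scale versus untreated control.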
# [9] = system: SAGPY (Sagittaria pygmaea); test: Flooded paddy, postemergence weed control; format: in vivo, L.; conditions: postemergence weeds, rated 3-4 weeks after treatment
# Description: as §3, §4
# ZEAMX (Corn, Field) = test: Postemergence herbicidal evaluation; format: in vivo, Zea mays, L.
# Procedure, shortened: as §2
# [10] = system: MOOVA (Monochoria vaginalis); test: Flooded paddy, postemergence weed control; format: in vivo, Presl.; conditions: postemergence weeds, rated 3-4 weeks after treatment
# Description: as §3, §4
# GALAP (Galium aparine) [11] = test: Postemergence herbicidal evaluation; format: in vivo
# Procedure, shortened: as §2
# [12] = system: ECHORC (Echinochloa oryzoides); test: Flooded paddy, postemergence weed control; format: in vivo, Echinochloa oryzoides (Ard.) Fritsch.; conditions: postemergence weeds, rated 3-4 weeks after treatment
# Description: as §3, §4
# [13] = system: CYPSE (Cyperus serotinus); test: Flooded paddy, postemergence weed control; format: in vivo, Rottb.; conditions: postemergence weeds, rated 3-4 weeks after treatment
# Description: as §3, §4
smiles,measurement,setting,value
"COC(=O)COc1ccsc1-c1nsc2ccc(-n3c(=O)cc(C(F)(F)F)n(C)c3=O)cc12 [Compound 22, Methyl [(2-[5-[3,6-dihydro-3-methyl-2,6-dioxo-4-(trifluoromethyl)-1(2H)-pyrimidinyl]-1,2-benzisothiazol-3-yl]-3-thienyl]oxy]acetate]","Postemergence herbicidal rating, SETVI",SETVI (Setaria viridis); rate 0.0320 kg/ha,3.0
same,"Postemergence herbicidal rating, SETVI",SETVI (Setaria viridis); rate 0.0620 kg/ha,2.0
same,"Postemergence herbicidal rating, SETVI",SETVI (Setaria viridis); rate 0.1250 kg/ha,9.0
same,"herbicidal rating, ECHORC",[1]; rate 0.0080 kg/ha,0.0
same,"herbicidal rating, ECHORC",[1]; rate 0.0320 kg/ha,0.0
same,"herbicidal rating, ECHORC",[1]; rate 0.1250 kg/ha,5.0
same,ORYSAT preemergence herbicidal rating,"ORYSAT (Rice, Tebonnet) [2]; Rate 0.0620 kg/ha",0.0
same,ORYSAT preemergence herbicidal rating,"ORYSAT (Rice, Tebonnet) [2]; Rate 0.1250 kg/ha",0.0
same,ORYSAT preemergence herbicidal rating,"ORYSAT (Rice, Tebonnet) [2]; Rate 0.2500 kg/ha",0.0
same,"herbicidal rating, SAGPY",[3]; rate 0.0080 kg/ha,0.0
same,"herbicidal rating, SAGPY",[3]; rate 0.0320 kg/ha,0.0
same,"herbicidal rating, SAGPY",[3]; rate 0.1250 kg/ha,0.0
same,GALAP preemergence herbicidal rating,GALAP (Galium aparine) [4]; Rate 0.0620 kg/ha,0.0
same,GALAP preemergence herbicidal rating,GALAP (Galium aparine) [4]; Rate 0.1250 kg/ha,0.0
same,GALAP preemergence herbicidal rating,GALAP (Galium aparine) [4]; Rate 0.2500 kg/ha,1.0
same,"Postemergence herbicidal rating, TRZAWR",[5]; rate 0.0320 kg/ha,2.5
same,"Postemergence herbicidal rating, TRZAWR",[5]; rate 0.0620 kg/ha,3.5
same,"Postemergence herbicidal rating, TRZAWR",[5]; rate 0.1250 kg/ha,4.5
same,herbicide rating (0-9) ORYSAT (rice tolerance),"ORYSAT (Rice, Tebonnet) [6]; 0.0320 kg/ha into flood water",0.0
same,herbicide rating (0-9) ORYSAT (rice tolerance),"ORYSAT (Rice, Tebonnet) [6]; 0.0620 kg/ha into flood water",0.0
same,herbicide rating (0-9) ORYSAT (rice tolerance),"ORYSAT (Rice, Tebonnet) [6]; 0.1250 kg/ha into flood water",0.0
same,"Postemergence herbicidal rating, ECHCG",[7]; rate 0.0320 kg/ha,0.0
same,"Postemergence herbicidal rating, ECHCG",[7]; rate 0.0620 kg/ha,2.0
same,"Postemergence herbicidal rating, ECHCG",[7]; rate 0.1250 kg/ha,6.0
same,"herbicidal rating, CYPSE",[8]; rate 0.0320 kg/ha,0.0
same,"herbicidal rating, CYPSE",[8]; rate 0.1250 kg/ha,0.0
same,herbicide rating (0-9) SAGPY,[9]; 0.0320 kg/ha into flood water,0.0
same,herbicide rating (0-9) SAGPY,[9]; 0.0620 kg/ha into flood water,0.0
same,herbicide rating (0-9) SAGPY,[9]; 0.1250 kg/ha into flood water,0.0
same,"Postemergence herbicidal rating, ZEAMX","ZEAMX (Corn, Field); rate 0.0320 kg/ha",4.5
same,"Postemergence herbicidal rating, ZEAMX","ZEAMX (Corn, Field); rate 0.0620 kg/ha",6.0
same,"Postemergence herbicidal rating, ZEAMX","ZEAMX (Corn, Field); rate 0.1250 kg/ha",7.0
same,herbicide rating (0-9) MOOVA,[10]; 0.0320 kg/ha into flood water,0.0
same,herbicide rating (0-9) MOOVA,[10]; 0.0620 kg/ha into flood water,0.0
same,herbicide rating (0-9) MOOVA,[10]; 0.1250 kg/ha into flood water,0.0
same,"Postemergence herbicidal rating, GALAP",GALAP (Galium aparine) [11]; rate 0.0320 kg/ha,0.0
same,"Postemergence herbicidal rating, GALAP",GALAP (Galium aparine) [11]; rate 0.0620 kg/ha,0.0
same,"Postemergence herbicidal rating, GALAP",GALAP (Galium aparine) [11]; rate 0.1250 kg/ha,1.0
same,herbicide rating (0-9) ECHORC,[12]; 0.0320 kg/ha into flood water,0.0
same,herbicide rating (0-9) ECHORC,[12]; 0.0620 kg/ha into flood water,0.0
same,herbicide rating (0-9) ECHORC,[12]; 0.1250 kg/ha into flood water,0.0
same,herbicide rating (0-9) CYPSE,[13]; 0.0320 kg/ha into flood water,0.0
same,herbicide rating (0-9) CYPSE,[13]; 0.0620 kg/ha into flood water,0.0
same,herbicide rating (0-9) CYPSE,[13]; 0.1250 kg/ha into flood water,0.0
"Cn1c(C(F)(F)F)cc(=O)n(-c2ccc3snc(-c4ncccn4)c3c2)c1=O [Compound 12, 1-methyl-3-[3-(2-pyrimidinyl)-1,2-benzisothiazol-5-yl]-6-(trifluoromethyl)uracil]","Postemergence herbicidal rating, SETVI",SETVI (Setaria viridis); rate 0.0620 kg/ha,9.0
same,"herbicidal rating, ECHORC",[1]; rate 0.1250 kg/ha,8.7
same,ORYSAT preemergence herbicidal rating,"ORYSAT (Rice, Tebonnet) [2]; Rate 0.2500 kg/ha",8.5
same,"herbicidal rating, SAGPY",[3]; rate 0.1250 kg/ha,3.7
same,GALAP preemergence herbicidal rating,GALAP (Galium aparine) [4]; Rate 0.2500 kg/ha,9.0
same,"Postemergence herbicidal rating, TRZAWR",[5]; rate 0.0620 kg/ha,6.0
same,herbicide rating (0-9) ORYSAT (rice tolerance),"ORYSAT (Rice, Tebonnet) [6]; 0.1250 kg/ha into flood water",2.0
same,"Postemergence herbicidal rating, ECHCG",[7]; rate 0.0620 kg/ha,4.0
same,"herbicidal rating, CYPSE",[8]; rate 0.1250 kg/ha,7.0
same,herbicide rating (0-9) SAGPY,[9]; 0.1250 kg/ha into flood water,0.0
same,"Postemergence herbicidal rating, ZEAMX","ZEAMX (Corn, Field); rate 0.0620 kg/ha",5.5
same,herbicide rating (0-9) MOOVA,[10]; 0.1250 kg/ha into flood water,2.0
same,"Postemergence herbicidal rating, GALAP",GALAP (Galium aparine) [11]; rate 0.0620 kg/ha,9.0
same,herbicide rating (0-9) ECHORC,[12]; 0.1250 kg/ha into flood water,1.0
same,herbicide rating (0-9) CYPSE,[13]; 0.1250 kg/ha into flood water,0.0
